Paper PMC2688680, “Identification, expression and characterisation of a Babesia bovis hexose transporter” (Molecular and Biochemical Parasitology, 2008)
One block for each molecule: values may come before it.

Columns and labels:
[1] = biological target: T1, B. bovis hexose transporter 1 (BboHT1) (Babesia bovis, UniProt B0LKY8); experiment: competition with […]D-glucose uptake in Xenopus oocytes at […] ([…] reduction); assay type: cell-based
T1 construct: full-length, 472 amino acid residues, Israel isolate, expressed in Xenopus laevis oocytes

[2] = biological target: T1, B. bovis hexose transporter 1 (BboHT1); experiment: inhibition of […]D-glucose uptake in Xenopus oocytes expressing BboHT1; assay type: cell-based
[3] = biological target: T1, B. bovis hexose transporter 1 (BboHT1); experiment: radiotracer D-fructose uptake in Xenopus oocytes versus water-injected controls; assay type: cell-based
[4] = substrate: OC[C@H]1OC(O)[C@H](O)[C@@H](O)[C@@H]1O; experiment: radiotracer D-glucose influx kinetics in Xenopus oocytes (Km); assay type: cell-based, Babesia bovis; details: hydroxyl positions at O-4 and O-6 important for ligand binding

Molecule: OC[C@H]1OC(O)C[C@@H](O)[C@@H]1O (stereo partly drawn) [2-DOG, 2-deoxy-D-glucose]
competition with [14C]D-glucose uptake in Xenopus oocytes at 10 mM (>50% reducti) [1]: 1-Deoxy-D-glucose, 2-deoxy-D-glucose, D-mannose (the 2-epimer of glucose), 3-deoxy-D-glucose, and 3-O-methyl-D-glucose all reduced D-glucose uptake via BboHT1

Ki [2]: 4.1 ± 0.9 µM
Molecule: C=CCCCCCCCCCO[C@H]1[C@H](O)[C@@H](CO)OC(O)[C@@H]1O (stereo partly drawn) [compound 3361, 3-O-(undec-10-en)-yl-D-glucose]

Molecule: OC[C@H]1OC(O)(CO)[C@@H](O)[C@@H]1O (stereo partly drawn) [D-fructose]
radiotracer D-fructose uptake in Xenopus oocytes versus water-injected controls [3]: D-Fructose uptake also increased in oocytes expressing BboHT1 when compared with uptake in water-injected controls

Molecule: OC[C@H]1OC[C@H](O)[C@@H](O)[C@@H]1O [1-DOG, 1-deoxy-D-glucose]
competition with [14C]D-glucose uptake in Xenopus oocytes at 10 mM (>50% reducti) [1]: 1-Deoxy-D-glucose, 2-deoxy-D-glucose, D-mannose (the 2-epimer of glucose), 3-deoxy-D-glucose, and 3-O-methyl-D-glucose all reduced D-glucose uptake via BboHT1

B1: B. bovis hexose transporter 1 (BboHT1) (Babesia bovis) (protein)
chain: MRSYFVYALALGALVAFNFGLNTVSFVASREFAVMDLGWCAGQDKLYECSRASTYSDIIAAGTFIGGAVGSLLIGYFAKFGRRKGMLIIHIINVIGSCMSTSASCFTMFLLGRLIAGVSVGASGVVAIYLSEICTNESRGKFGIVYPLFICIGQFLMVAWQLLHGRILGADNKVVTMDDLKTFDKFVWRMAQFWPVVFSIIAVVIMVFIVTDDTPYVLLNEGKEEEARSVISKLHGEENADAITAELKADIEAQKANSDKLSLLEALKVAQYRKVIFICCGLGIVQQFSGINIFVANASTLFISIMGRTVIANVMGLVGILCLMVTMISLSFFIEKFGRKTLLLAGIFVSSVFMVPAVIIKLAAGKDAKWAEYIMVTGCMGFMVGFAIGLGGVMWLYLAEAMGAEYKDAGFGLATCANWLFAAIVVMTSGMLIKFNENFTYALYAGFGVLGFVYVALLIKETKGIPLGQAYA
notes: full-length, 472 amino acid residues, Israel isolate, expressed in Xenopus laevis oocytes
Km [4]: 840 ± 540 µM
